Key:
[1] = test system: NF-κB; test: NF-κB activity assay (SEAP reporter, Quantiblue) in THP-1 Dual cells; assay type: cell-based, human
Experimental: (§1) One ml aliquots of PMA-differentiated THP-1 Dual cells (3.3×10^5 cells/nil) in 24 well tissue culture plates were starved for 1 day in complete medium with 1% HI FBS as described above. For experiments with S7 peptide, 0.5 ml cultures in 48 well plates were used. Fresh medium containing 1% HI FBS was added to the cells and after 2 hours cells were stimulated with 100 ng/ml LPS or 25 ng/ml Pam3CSK4 in the presence of RTD-1 or 0.01% acetic acid (HOAc, vehicle). In some experiments cells were pre-incubated with marimastat, Ly294002 or vehicle for 1 hour prior to addition of LPS and/or RTD-1 (SEQ ID NO. 1). Following overnight incubation, medium was clarified by centrifugation and SEAP activity was determined using Quantiblue reagent at 37° C. and measurement of absorbance at 625 nm. To test the effect of RTD-1 on TLR9-dependent NF-κB activation, 2×10^5 HEK-Blue™ hTLR9 cells/ml were cultured for 1 day in 24 well plates and stimulated overnight with ODN2006 with or without RTD-1. Medium was harvested and SEAP activity was assayed using Quantiblue™ as above. NF-κB activation was defined as fold stimulation of SEAP activity with respect to control cells.

[2] = test system: THP-1 macrophages; test: Cytokine secretion ELISA, LPS-stimulated differentiated THP-1 cells; assay type: cell-based, human
Experimental: (§2) THP-1 monocytes (ATCC, Manassas, Va.) were cultured in RPMI 1640+10% FBS and penicillin/streptomycin (P/S). THP-1 Dual cells (Invivogen, San Diego, Calif.) which express the NF-κB reporter, secreted embryonic alkaline phosphatase (SEAP), were grown in RPMI 1640+10% HI-FBS and antibiotics. THP-1 cell differentiation was induced by treatment of cells (˜3.3×10^5 cells/ml) with 100 nM PMA and cultured for 2 days. HEK-Blue™ hTLR9 cells (Invivogen) were grown in DMEM medium containing 10% HI-FBS, P/S and normocin. Cells were cultured at 37° C. in 5% CO2. Cytokine assays. PMA-differentiated THP-1 cells (˜8×10^5 cells) cultured in 6-well plates were washed twice with complete medium and grown in fresh medium containing 1% FBS for 24 hours. Cells were washed twice with fresh medium and incubated for 2 hours prior to further manipulation. Cells were stimulated with 100 ng/ml LPS in the presence or absence of 10 μg/ml RTD-1 or vehicle (0.01% acetic acid) for 2 hours. In some experiments, cells were first incubated for 1 hour with 10 μg/ml of marimastat or vehicle (DMSO), after which LPS and/or RTD-1 were added and incubated for 2 hours as above. Peripheral blood CD14+ monocytes (Lonza, Walkersville, Md.) were thawed, rinsed with RPMI 1640 containing 10% HI FBS, P/S and normocin and then resuspended in RPMI 1640 containing 1% HI FBS plus antibiotics as above (10^6 cells/nil) for 2 hours. The cells were then stimulated for 4 hours as described in the legend. Medium was collected, clarified by centrifugation first at 250×g for 8 minutes and then at 5000×g for 5 minutes. TNF-α, IL-1β and IL-8 were quantified by ELISA (Life Technologies, Carlsbad, Calif.).

[3] = test system: primary human monocytes; test: Cytokine secretion ELISA, LPS-stimulated primary human monocytes; assay type: cell-based; conditions: LPS 20 ng/ml, 4 hours, RTD-1 10 μg/ml
Experimental: as §2

[4] = test system: THP-1 cells; test: Real time quantitative PCR of cytokine mRNA, LPS-stimulated THP-1 cells; assay type: cell-based, human
Experimental: Differentiated THP-1 cells were treated with LPS and RTD-1 for 2 hours as above, washed with PBS and RNA was isolated using an RNA mini kit (Zymo Research, Irvine, Calif.) or with RNeasy mini kit (Qiagen, Valencia, Calif.). RNA integrity was confirmed on agarose gels and RNA samples with A260/280 and A260/230 ratios ≧1.7 were used to generate cDNA. Briefly, 400 ng RNA was incubated with genomic DNA (gDNA) elimination (GE) buffer for 5 minutes at […]. and reverse transcribed using the RT^2 first strand synthesis kit (Qiagen). Custom PCR arrays (SA Biosciences, Frederick, Md.) containing human genes of interest and controls (for reverse transcriptase and PCR efficiency, RTC and PPC respectively) were used for simultaneous real time PCR analysis. Master mix containing cDNA and RT^2 SYBR Green™ was added to array wells. PCR cycling parameters were: 1 cycle 10 minutes at 95° C., 40 cycles of 15 seconds at 95° C., 1 minute at 60° C. on a BioRad C1000 Thermal Cycler equipped with a CFX96 real time system. Melting curve analysis confirmed a single amplicon with CT PPC=20±2 and ACT (RTC-PPC)<5 for all samples. The ACTB gene was used for normalization of gene expression and fold stimulation (compared to untreated cells) was calculated using the ΔΔCT method. Absence of gDNA in cDNA samples (CT>35) was confirmed using a human gDNA primer (SA Biosciences).

[5] = test system: TLR9-dependent NF-κB activation; test: TLR9-dependent NF-κB activation (SEAP) in HEK-Blue hTLR9 cells; assay type: cell-based, human; conditions: ODN2006, RTD-1 10 μg/ml
Experimental: as §1

[6] = test system: NF-κB p65; test: NF-κB DNA-binding activity (p65 ELISA) in THP-1 nuclear extracts; assay type: cell-based, human
Experimental: Nuclear extracts were prepared (nuclear extraction kit; Cayman Chemical Co., Ann Arbor, Mich.) from differentiated THP-1 cells treated for 30 minutes with vehicle, LPS (100 ng/ml) or TNF-α (2 ng/ml) in the presence or absence of 10 μg/ml RTD-1 (SEQ ID NO. 1). NF-κB DNA binding was quantified by p65 ELISA (Cayman Chemical Co.). Non-specific DNA-binding, positive control extract and positive control extract treated with competitor DNA control included with the ELISA were used to confirm specificity of DNA-binding.

[7] = test system: THP-1 cells; test: Immunoblot analyses of THP-1 cell extracts; assay type: cell-based, human
Experimental: (§3) Differentiated THP-1 cells (˜8×10^5 cells/2.5 ml medium) were starved in complete medium containing […] for 1 day as above, and fresh 2.5 ml RPMI 1640+1% FBS+P/S was added for 2 hours. For experiments with fresh monocytes, cells (>80% CD14+) were resuspended (˜10^6 cells/nil) in monocyte attachment medium (Promocell, Heidelberg, Germany) in wells of a 12 well plate for 2 hours at 37° C. in 5% CO2. The cells were then washed two times with RPMI medium containing 1% HI FBS and suspended overnight in RPMI medium containing 1% HI FBS. Cells were stimulated with agonists with or without RTD-1 (SEQ ID NO. 1) as described in the figure legends after which cells were washed with PBS and extracts were prepared in cell lysis buffer+1 mM PMSF. Protein content was determined using the BCA method (BioRad, San Diego, Calif.) and extracts resolved on SDS-tricine gels and transferred to nitrocellulose membrane. The membranes were probed with the indicated antibodies and developed using anti-mouse or anti-rabbit HRP conjugated secondary antibodies and detected by chemiluminescence. A phosphoprotein antibody array (Phospho-MAPK™; R&D systems Minneapolis, Minn.) was used to analyze activation of phosphoprotein kinases. Differentiated THP-1 cells (1.6×10^6 cells) were treated with 100 ng/ml LPS, 10 μg/ml RTD-1 (SEQ ID NO. 1), 100 ng/ml LPS+10 μg/ml RTD-1, or vehicle for 30 minutes. Arrays were probed with 200 μg of cell extract protein and chemiluminescence of spots from arrays or bands from western blotting was quantified using NIH ImageJ software, background subtracted, normalized and plotted.

[8] = test system: THP-1 cells; test: Phospho-MAPK phosphoprotein antibody array, THP-1 cells; assay type: cell-based, human
Experimental: as §3

[9] = test system: primary human monocytes; test: Immunoblot analyses of primary human monocyte extracts; assay type: cell-based
Experimental: EDTA-anticoagulated blood was incubated with human monocyte enrichment cocktail (Stem Cell Technologies, Vancouver, BC, Canada) for 20 minutes and layered on Ficoll Paque™ in a Sepmate™ 50 tube (Stem Cell Tech). The cells were centrifuged at 1200×g for 10 minutes and the monocyte containing layer of cells was isolated, washed with PBS containing 2% HI FBS and 1 mM EDTA.
as §3

[10] = test system: peripheral blood leukocytes; test: Cytokine secretion by peripheral blood leukocytes stimulated with TLR agonists; assay type: cell-based, human; conditions: stimulated by agonists of TLRs 2, 4, 5, and 8
[11] = test system: whole blood; test: TNF-α secretion by E. coli stimulated whole blood; assay type: cell-based
[12] = Binding to LPS
[13] = test system: peripheral blood leukocytes; conditions: human peripheral blood leukocytes, diverse TLR agonists (Schaal et al 2012); cited from earlier work
[14] = test system: inflammatory cytokines; conditions: mouse models; cited from earlier work
[15] = LPS 100 ng/ml, 2 hours, RTD-1 10 μg/ml, THP-1 macrophages
[16] = LPS 100 ng/ml, comparison RTD-1 versus marimastat
[17] = LPS 100 ng/ml, RTD-1 10 μg/ml, 2 hours
[18] = LPS 100 ng/ml, RTD-1 10 μg/ml, 30 minutes
[19] = LPS 100 ng/ml + RTD-1 10 μg/ml, 30 minutes

In the case of “HNP-1: human neutrophil α-defensin HNP-1 purified from neutrophils [reference compound]”, the “inhibition of NF-κB activity” value ([1]; LPS 100 ng/ml, equimolar concentrations used in place of RTD-1) is reported as “no inhibition”.
In the case of “RTD-1: rhesus theta-defensin 1, macrocyclic tri-disulfide θ-defensin peptide, SEQ ID NO. 1, synthetic (cyclo(GFCRCLCRRGVCRCICTR); disulfide (positions not given here); not fully specified (bridges); also: three disulfides, places not given here; listed as Macaca mulatta)”, the “suppression of secretion of IL-1β” value [2, 15] is reported as > 90%, the “suppression of secretion of IL-8” value [2, 15] is reported as > 90% and the “suppression of secretion of TNF-α” value [2, 15] is reported as > 90%. The “release of TNF-α by LPS-stimulated THP-1 cells” value [2, 16] was “blocked both cytokines effectively”, the “secretion of IL-1β by LPS-stimulated THP-1 cells” value [2, 16] was “blocked both cytokines effectively” and the “effect on THP-1 cytokine secretion” value ([2]; RTD-1 alone, no LPS) was “no effect”. For the same substance, the “suppression of secretion of IL-1β” value [3] was > 90%, the “suppression of secretion of IL-8” value [3] was > 90% and the “suppression of secretion of TNF-α” value [3] was > 90%. For the same substance, the “LPS-induced mRNA expression of CCL3” value [4, 17] was “markedly inhibited”, the “LPS-induced mRNA expression of CCL4” value [4, 17] was “markedly inhibited” and the “LPS-induced mRNA expression of IL-1β” value [4, 17] was “markedly inhibited”. The “LPS-induced mRNA expression of IL-8” value [4, 17] was “markedly inhibited”, the “LPS-induced mRNA expression of TNF-α” value [4, 17] was “markedly inhibited” and the “expression of GAPDH” value ([4]; addition of RTD-1) was “no effect”. For the same substance, the “cytokine mRNA expression” value ([4]; peptide alone, no LPS) was “no effect”, the “dose dependence of inhibition of NF-κB activation” value ([1]; LPS 100 ng/ml, RTD-1 5 and 10 μg/ml) was “dose dependent” and the “LPS-stimulated NF-κB activation” value ([1]; LPS 100 ng/ml, comparison RTD-1 versus marimastat, RTD-1 in the presence or absence of marimastat) was “potent inhibitor”. For the same substance, the “suppression of LPS-induced NF-κB activation” value ([1]; LPS 100 ng/ml, simultaneous RTD-1 10 μg/ml, THP-1 Dual cells) was ~70%, the “direct effect on the enzymatic activity of the SEAP reporter” value ([1]; LPS/RTD-1 control) was “no direct effect” and the “inhibition of Pam3CSK4-induced NF-κB activity” value ([1]; Pam3CSK4 25 ng/ml, RTD-1 10 μg/ml) was ~70%. The “effect on NF-κB activation” value ([1]; RTD-1 alone, no LPS) was “no effect”, the “suppression of ODN2006-mediated NF-κB activation” value [5] was “to baseline levels” and the “NF-κB DNA binding, LPS-stimulated” value [6, 18] was “to baseline levels”. For the same substance, the “translocation of NF-κB p65 to the nucleus” value ([6]; LPS stimulated macrophages, Western blot of nuclear extracts) was “inhibit translocation”, the “suppression of TNF-α-stimulated NF-κB DNA binding” value ([6]; TNF-α 2 ng/ml, RTD-1 10 μg/ml, 30 minutes, compared with TNF-α alone) was ~35% and the JNK1/2 kinase phosphorylation ([7]; LPS 100 ng/ml, RTD-1 10 μg/ml) was “inhibition”. The “degradation of IκBα in LPS stimulated macrophages” value ([7]; LPS 100 ng/ml, RTD-1 10 μg/ml) was “effective in blocking”, the “p38 MAP kinase phosphorylation” value ([7]; LPS 100 ng/ml, RTD-1 10 μg/ml) was “inhibition” and the “P-Akt levels remained elevated” value ([7]; RTD-1 10 μg/ml alone, for at least 4 hours) was ~2.5 fold. The “increase in P-Akt” value ([7]; RTD-1 10 μg/ml alone, within 10 minutes of peptide treatment) was 6.5 fold, the “IκBα levels and phosphorylation of p38 MAP and JNK1/2 kinases” value ([7]; RTD-1 alone) was “no effect” and the “LPS-induced phosphorylation of CREB” value [8, 19] was “to baseline levels”. The “LPS-induced phosphorylation of ERK2” value [8, 19] was “to baseline levels”, the “LPS-induced phosphorylation of H5P27” value [8, 19] was “to baseline levels” and the “LPS-induced phosphorylation of JNK2” value [8, 19] was “to baseline levels”. The “LPS-induced phosphorylation of p38α” value [8, 19] was “to baseline levels”, the “LPS-induced phosphorylation of p38γ” value [8, 19] was “to baseline levels” and the “phosphorylation of CREB, ERK2, H5P27, JNK2, p38α and p38γ” value ([8]; RTD-1 alone) was “did not suppress”. For the same substance, the “phosphorylation of Akt1” value ([8]; RTD-1 alone or in combination with LPS) was “selectively stimulated”, the “baseline phosphorylation of other kinase targets” value ([8]; RTD-1 alone, otherwise untreated cells) was “did not increase” and the “degradation of IκBα in LPS stimulated monocytes” value [9, 18] was “reduced”. For the same substance, the “p38 MAP kinase phosphorylation in LPS stimulated monocytes” value [9, 18] was “inhibited”, the “degradation of IκBα” value ([9]; RTD-1 alone, monocytes) was “did not induce” and the “phosphorylation of Akt” value ([9]; monocytes treated with LPS and RTD-1 or RTD-1 alone, compared to control cells) was “increased phosphorylation”. For the same substance, the “p38 MAP kinase phosphorylation” value ([9]; peptide alone, monocytes) was “no effect”, the “secretion of several inflammatory cytokines” value [10] was “suppressed secretion” and the “speed of blockade of TNF-α secretion” value [11] was “extremely rapid”. For the same substance, the “binding to LPS” value [12] was “binds inefficiently”, the “inhibition of cytokine secretion” value [13] was “potent inhibitor” and the “inflammatory cytokines, including TNF-α, IL-1β and several chemokines” value [14] was “reduce inflammatory cytokines”.

From patent US20170035845A1, “Compositions and Methods for Inhibiting Pro-Inflammatory Cytokine Gene Expression” (The Regents of the University of California, priority 2015, published 2017)
